Source: US5262421A, “Use of dicentrine and its derivatives for the treatment of hypertension, arrhythmia, thrombosis and atherosclerosis” (National Science Council, priority 1991, dated 1993)
“Also recorded” adds a separate entry of the source.

How the values were obtained:
[1] = tested on: membrane currents of rat ventricular cells; assay: Voltage clamp, membrane currents in rat ventricular cells; assay type: cell-based
Excerpt: (§1) In rat ventricular cells, the effects of dicentrine on action potential and membrane current were studied. […] However, calcium current was less affected.

[2] = tested on: rat ventricular cells; assay: Action potential of rat ventricular cells; assay type: cell-based; conditions: for Tp (time to peak) / APD50 (action potential duration at 50% repolarization) / AP amplitude (initial upstroke amplitude): 3 μM; for Tp (time to peak): control 5.0 ± 0.5 (dicentrine), 5.3 ± 0.5 (quinidine); for APD50 (action potential duration at 50% repolarization): control 59.9 ± 11.3 (dicentrine), 62.6 ± 3.9 (quinidine); for AP amplitude (initial upstroke amplitude): control 138.3 ± 2.6 (dicentrine), 135.2 ± 2.2 (quinidine)
Excerpt: as §1
The effects of dicentrine and quinidine on action potential were compared and studied in rat ventricular cells. […] In addition to the prolongation of APD50, a depression of initial upstroke amplitude from 138.3±2.6 mV to 125.5±4.5 mV and prolongation of the time to peak amplitude from 5.0±0.5 msec to 10.0±1.9 msec were observed.
Means ± S.E.M. are presented. *: P < 0.05 as compared with the
APD50 : action potential duration measured at 50% repolarization fro
Tp : time to peak measured from the start of depolarization to the
Concentration: dicentrine (3 μM), quinidine (3 μM).

[3] = tested on: conscious spontaneously hypertensive (SH) and normotensive (NT) rats; assay: Mean arterial pressure in conscious spontaneously hypertensive (SH) and normotensive (NT) rats; assay type: in vivo, rat
[4] = tested on: washed rabbit platelets; assay: Aggregation of washed rabbit platelets induced by arachidonic acid, collagen, thrombin, ADP or PAF; assay type: cell-based; conditions: for Aggregation (%): dicentrine 150 μM
Excerpt: These fractions inhibited the aggregation of washed rabbit platelets induced by ADP, collagen, arachidonic acid and platelet-activating factor (PAF). […] Furthermore, the action potential of rat ventricular cells was prolonged by these fractions. After rechromatography on a silica gel column with n-hexane-ethylacetate (2:1), four potent compounds, dicentrine, N-methylnandigerine, N-methylovigenine and dicentrinone were obtained.
500 g of dried, ground root material Lindera oldhamu (megaphylla) Hemsl was extracted with 95% ethanol, and the extract was concentrated in vacuo and fractionated into ethanol- and ethylacetate-soluble fractions. The ethylacetate-soluble fraction was then applied to a column of silica gel and eight fractions were obtained.
(§2) Means ± S.E.M. are presented. *: P < 0.05, **: P < 0.01, ***: P < 0.00
(§3) as compared with the respective control. Concentration: arachidonic acid
(100 μM), collagen (10 μg/ml), norepinephrine (NE, 3 μM), each
(§4) At 6 min after the addition of inducer, indomethacin (50 μM) and EDTA (2 mM) were added to stop the reaction, and thromboxane B2 was assayed by RIA kits.
(§5) (100 μM), collagen (10 ug/ml), thrombin (0.1 U/ml), dicentrine (150

[5] = tested on: α1-adrenoceptor (rat thoracic aortae); assay: Schild analysis of α1-adrenoceptor antagonism: norepinephrine- and phenylephrine-induced contraction of rat thoracic aortae
Excerpt: Results are given as means ± S.E.M. or the mean with 95% confidence

[6] = tested on: anesthetized rats; assay: Systemic hemodynamic parameters of pentobarbital-anesthetized rats; assay type: in vivo, rat; conditions: for Blood flow: before 7 ± 4; for total peripheral resistance: dicentrine 1.0 mg/kg, prazosin 0.1 mg/kg
[7] = tested on: isolated thoracic aorta of rats fed with high cholesterol and high fat diet; assay: Contractile force of isolated thoracic aorta from rats fed high cholesterol and high fat diet; assay type: in vivo, rat; conditions: for contractile force: high cholesterol & fat diet, dicentrine 10 mg/kg, prazosin 5 mg/kg
[8] = tested on: rat thoracic aorta; assay: Aortic contraction induced by other agonists; conditions: in words
[9] = tested on: rats fed with high cholesterol and high fat diet; assay: Blood cholesterol and triglyceride in rats fed high cholesterol and high fat diet; assay type: in vivo, rat; conditions: for Cholesterol / Triglyceride: high cholesterol & fat diet, dicentrine 10 mg/kg or prazosin 5 mg/kg, oral twice a day in last week; for Cholesterol: diet control 120 ± 7.1, normal diet 62 ± 4.5; for Triglyceride: diet control 305 ± 11.1, normal diet 84 ± 5.4
[10] = tested on: Thromboxane B2 formation in washed rabbit platelets; assay: Thromboxane B2 formation in washed rabbit platelets (RIA); assay type: cell-based; conditions: for Thromboxane B2: dicentrine 150 μM
Protocol: as §4, §2, §3, §5

[11] = tested on: guinea-pig trachea; assay: Contraction and relaxation of guinea-pig trachea; conditions: in words
[12] = tested on: rat thoracic aortae; assay: Norepinephrine-induced contraction of rat thoracic aortae (phasic and tonic); conditions: in words
[13] = pentobarbital-anesthetized rats, in words
[14] = oral twice a day (10 mg/kg) in the last week, in words

COc1cc2c(cc1OC)-c1c3c(cc4c1[C@H](C2)N(C)CC4)OCO3 [dicentrine]
calcium current [1]: less affected
fast sodium inward current [1]: inhibition
steady state outward current [1]: significant inhibition
transient outward current [1]: significant inhibition
Tp (time to peak) [2]: 10.0 ± 1.9 ms
Tp (time to peak) ([2]; listed as Dicentrine): 10.0 ± 1.9 ms
APD50 (action potential duration at 50% repolarization) [2]: 201.9 ± 28.7 ms
APD50 (action potential duration at 50% repolarization) ([2]; listed as Dicentrine): 201.9 ± 28.7 ms
AP amplitude (initial upstroke amplitude) [2]: 125.5±4.5 mV
AP amplitude (initial upstroke amplitude) ([2]; listed as Dicentrine): 125.5 ± 4.5 mV
action potential ([2]; stimulation frequency 0.1 Hz): prolonged
initial upstroke amplitude ([2]; stimulation frequency 0.1 Hz): reduced
time to peak ([2]; stimulation frequency 0.1 Hz): increased
mean arterial pressure ([3]; conscious SH and NT rats): dose-related decreases in mean arterial pressure which were of a greater magnitude in SH rats than in NT rats
duration of hypotensive effect ([3]; oral administration, conscious SH rats): over 15 hr
aggregation of washed rabbit platelets ([4]; induced by arachidonic acid and collagen, in words): inhibited
Aggregation (%) ([4]; inducer arachidonic acid 100 μM, control 92 ± 1): 11 ± 7%
Aggregation (%) ([4]; inducer collagen 10 ug/ml, control 94 ± 1): 51 ± 7%
Aggregation (%) ([4]; inducer thrombin 0.1 U/ml, control 95 ± 2): 92 ± 2%
α1-adrenoceptor antagonism, relative potency ([5]; comparison with prazosin, yohimbine and phentolamine): less potent than prazosin; also recorded: much more potent than phentolamine or yohimbine
effects in denuded aortae ([5]; denuded aortae): still persisted
norepinephrine- or phenylephrine-induced vasoconstriction of rat aortae ([5]; in words): competitive antagonism
Blood flow ([6]; after dicentrine 1.0 mg/kg): 200 ± 27
CO ([6]; after dicentrine 1.0 mg/kg, before 21 ± 2): 25 ± 4 mL/min
MAP ([6]; after dicentrine 1.0 mg/kg, before 122 ± 5): 62 ± 5 mm Hg
HR ([6]; after dicentrine 1.0 mg/kg, before 353 ± 10): 348 ± 8 bpm
hypotensive activity after α1-adrenoceptor blockade ([6]; after α1-adrenoceptor blockade): completely abolished
mean arterial blood pressure ([6]; anesthetized rats, i.v. bolus 0.1-1.0 mg/kg): dose-related reduction
duration of reduction in mean arterial blood pressure ([6]; anesthetized rats, i.v. bolus 0.1-1.0 mg/kg, throughout observation period): ≥ 2 h
total peripheral resistance [6]: reduction
cardiac output (CO) [6, 13]: little or no change
heart rate (HR), or stroke volume (SV) [6, 13]: no change
mean arterial pressure (MAP) [6, 13]: decrease
contractile force of aorta ([7]; cholesterol-triglyceride-treated rats, in words): restored the contractile force of cholesterol-triglyceride-treated rat aortae back to normal values
maximal contractile force of isolated thoracic aorta [7, 14]: restored to normal range
contractile force ([7]; phenylephrine 3 × 10^-6 M): 0.75 ± 0.12 g
contractile force ([7]; phenylephrine 3 × 10^-7 M): 0.55 ± 0.07 g
contractile force ([7]; phenylephrine 3 × 10^-8 M): 0.22 ± 0.05 g
contractile force ([7]; phenylephrine 10^-6 M): 0.67 ± 0.11 g
contractile force ([7]; phenylephrine 10^-7 M): 0.55 ± 0.07 g
aortic contraction induced by U-46619, angiotensin II, high potassium or carbachol [8]: did not affect
serum triglyceride level ([9]; cholesterol-triglyceride-rich diet, in words): decreased
Cholesterol [9]: 112 ± 4.6 mg/dL
Triglyceride [9]: 108 ± 4.3 mg/dL
blood cholesterol level [9, 14]: unchanged
triglyceride level [9, 14]: restored to normal levels
Thromboxane formations ([10]; caused by arachidonic acid, collagen and thrombin, in words): all suppressed
Thromboxane B2 ([10]; inducer arachidonic acid 100 μM, control 445 ± 44): 19 ± 15 ng/10^8 platelets
Thromboxane B2 ([10]; inducer collagen 10 ug/ml, control 478 ± 93): 70 ± 5 ng/10^8 platelets
Thromboxane B2 ([10]; inducer thrombin 0.1 U/ml, control 131 ± 25): 44 ± 14 ng/10^8 platelets
contraction of guinea-pig trachea caused by histamine or carbachol [11]: slightly inhibited
β-adrenoceptor relaxation to isoprenaline in trachea [11]: not affected
vasorelaxant activity in rat thoracic aorta [12]: most potent vasorelaxant

COc1cc2nc(N3CCN(C(=O)c4ccco4)CC3)nc(N)c2cc1OC [prazosin, reference compound]
Blood flow ([6]; after prazosin 0.1 mg/kg): 171 ± 14
CO ([6]; after prazosin 0.1 mg/kg, before 27 ± 3): 32 ± 3 mL/min
MAP ([6]; after prazosin 0.1 mg/kg, before 120 ± 4): 68 ± 6 mm Hg
HR ([6]; after prazosin 0.1 mg/kg, before 367 ± 9): 337 ± 10 bpm
total peripheral resistance [6]: reduction
cardiac output (CO) [6, 13]: little or no change
mean arterial pressure (MAP) [6, 13]: decrease
contractile force ([7]; phenylephrine 3 × 10^-6 M): 0.87 ± 0.12 g
contractile force ([7]; phenylephrine 3 × 10^-7 M): 0.70 ± 0.09 g
contractile force ([7]; phenylephrine 3 × 10^-8 M): 0.30 ± 0.05 g
contractile force ([7]; phenylephrine 10^-6 M): 0.80 ± 0.12 g
contractile force ([7]; phenylephrine 10^-7 M): 0.51 ± 0.08 g
Cholesterol [9]: 112 ± 3.9 mg/dL
Triglyceride [9]: 114 ± 9.2 mg/dL

C=C[C@H]1C[N@@]2CC[C@H]1C[C@@H]2[C@@H](O)c1ccnc2ccc(OC)cc12 [quinidine, reference compound]
Tp (time to peak) [2]: 10.8 ± 2.4 ms
APD50 (action potential duration at 50% repolarization) [2]: 276.0 ± 18.6 ms
AP amplitude (initial upstroke amplitude) [2]: 121.2 ± 2.3 mV
